# According to patent publication US8030443B2, “Squamous cell carcinoma antigen-derived peptide binding to HLA-A24 molecule” (Kurume University, priority 2005, dated 2011):
# Test system: peptide-specific IgG in sera of cancer patients and healthy donors
# Experiment: Measurement of anti-peptide IgG in plasma by LUMINEX multiplexed flow cytometric assay
# Assay type: binding, human
# Outline: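 Plasma diluted 1/100 incubated with peptide-coupled colour-coded beads 2 h at RT, then biotinylated goat anti-human IgG (γ-chain) 1 h and streptavidin-PE 30 min; fluorescence read by multiplexed flow cytometry, >100 counted significant. Specificity checked by three rounds of absorption on corresponding versus irrelevant SCCA peptide.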
sequence,measurement,setting,value
"AYELKIANKL (SCCA 98-107 peptide) [SCCA-derived peptide, position 98-107]",Total: healthy donors with significant peptide-reactive IgG / donors tested,"10 healthy donors, significant when fluorescence intensity exceeded 100 at 1/100 dilution",1/10
same,Total: cancer patients with significant peptide-reactive IgG / patients tested,"71 cancer patients, significant when fluorescence intensity exceeded 100 at 1/100 dilution",12/71
same,Fluorescence intesity,"serum of Breast Ca. patient #36, 1:100 dilution",44
same,Fluorescence intesity,"serum of Breast Ca. patient #37, 1:100 dilution",18
same,Fluorescence intesity,"serum of Breast Ca. patient #38, 1:100 dilution",12
same,Fluorescence intesity,"serum of Breast Ca. patient #39, 1:100 dilution",20
same,Fluorescence intesity,"serum of Breast Ca. patient #40, 1:100 dilution",10
same,Fluorescence intesity,"serum of Breast Ca. patient #41, 1:100 dilution",214
same,Fluorescence intesity,"serum of Breast Ca. patient #42, 1:100 dilution",12
same,Fluorescence intesity,"serum of Breast Ca. patient #43, 1:100 dilution",12
same,Fluorescence intesity,"serum of Breast Ca. patient #44, 1:100 dilution",0
same,Fluorescence intesity,"serum of Breast Ca. patient #45, 1:100 dilution",18
same,Fluorescence intesity,"serum of Colon Ca. patient #66, 1:100 dilution",0
same,Fluorescence intesity,"serum of Colon Ca. patient #67, 1:100 dilution",0
same,Fluorescence intesity,"serum of Colon Ca. patient #68, 1:100 dilution",0
same,Fluorescence intesity,"serum of Colon Ca. patient #69, 1:100 dilution",0
same,Fluorescence intesity,"serum of Colon Ca. patient #70, 1:100 dilution",0
same,Fluorescence intesity,"serum of Colon Ca. patient #71, 1:100 dilution",26
same,Fluorescence intesity,"serum of Gastric Ca. patient #56, 1:100 dilution",2
same,Fluorescence intesity,"serum of Gastric Ca. patient #57, 1:100 dilution",0
same,Fluorescence intesity,"serum of Gastric Ca. patient #58, 1:100 dilution",0
same,Fluorescence intesity,"serum of Gastric Ca. patient #59, 1:100 dilution",15
same,Fluorescence intesity,"serum of Gastric Ca. patient #60, 1:100 dilution",1
same,Fluorescence intesity,"serum of Gastric Ca. patient #61, 1:100 dilution",8
same,Fluorescence intesity,"serum of Gastric Ca. patient #62, 1:100 dilution",0
same,Fluorescence intesity,"serum of Gastric Ca. patient #63, 1:100 dilution",0
same,Fluorescence intesity,"serum of Gastric Ca. patient #64, 1:100 dilution",0
same,Fluorescence intesity,"serum of Gastric Ca. patient #65, 1:100 dilution",0
same,Fluorescence intesity,"serum of Healthy Donor #1, 1:100 dilution",0
same,Fluorescence intesity,"serum of Healthy Donor #2, 1:100 dilution",35
same,Fluorescence intesity,"serum of Healthy Donor #3, 1:100 dilution",0
same,Fluorescence intesity,"serum of Healthy Donor #4, 1:100 dilution",0
same,Fluorescence intesity,"serum of Healthy Donor #5, 1:100 dilution",0
same,Fluorescence intesity,"serum of Healthy Donor #6, 1:100 dilution",0
same,Fluorescence intesity,"serum of Healthy Donor #7, 1:100 dilution",0
same,Fluorescence intesity,"serum of Healthy Donor #8, 1:100 dilution",361
same,Fluorescence intesity,"serum of Healthy Donor #9, 1:100 dilution",39
same,Fluorescence intesity,"serum of Healthy Donor #10, 1:100 dilution",0
same,Fluorescence intesity,"serum of Pancreas Ca. patient #46, 1:100 dilution",0
same,Fluorescence intesity,"serum of Pancreas Ca. patient #47, 1:100 dilution",6
same,Fluorescence intesity,"serum of Pancreas Ca. patient #48, 1:100 dilution",369
same,Fluorescence intesity,"serum of Pancreas Ca. patient #49, 1:100 dilution",0
same,Fluorescence intesity,"serum of Pancreas Ca. patient #50, 1:100 dilution",0
same,Fluorescence intesity,"serum of Pancreas Ca. patient #51, 1:100 dilution",0
same,Fluorescence intesity,"serum of Pancreas Ca. patient #52, 1:100 dilution",100
same,Fluorescence intesity,"serum of Pancreas Ca. patient #53, 1:100 dilution",0
same,Fluorescence intesity,"serum of Pancreas Ca. patient #54, 1:100 dilution",0
same,Fluorescence intesity,"serum of Pancreas Ca. patient #55, 1:100 dilution",0
same,Fluorescence intesity,"serum of Uterine cervical Ca. patient #1, 1:100 dilution",11
same,Fluorescence intesity,"serum of Uterine cervical Ca. patient #2, 1:100 dilution",0
same,Fluorescence intesity,"serum of Uterine cervical Ca. patient #3, 1:100 dilution",0
same,Fluorescence intesity,"serum of Uterine cervical Ca. patient #4, 1:100 dilution",0
same,Fluorescence intesity,"serum of Uterine cervical Ca. patient #5, 1:100 dilution",0
same,Fluorescence intesity,"serum of Uterine cervical Ca. patient #6, 1:100 dilution",1226
same,Fluorescence intesity,"serum of Uterine cervical Ca. patient #7, 1:100 dilution",26
same,Fluorescence intesity,"serum of Uterine cervical Ca. patient #8, 1:100 dilution",26
same,Fluorescence intesity,"serum of Uterine cervical Ca. patient #9, 1:100 dilution",58
same,Fluorescence intesity,"serum of Uterine cervical Ca. patient #10, 1:100 dilution",14
same,Fluorescence intesity,"serum of Uterine cervical Ca. patient #11, 1:100 dilution",33
same,Fluorescence intesity,"serum of Uterine cervical Ca. patient #12, 1:100 dilution",33
same,Fluorescence intesity,"serum of Uterine cervical Ca. patient #13, 1:100 dilution",397
same,Fluorescence intesity,"serum of Uterine cervical Ca. patient #14, 1:100 dilution",26
same,Fluorescence intesity,"serum of Uterine cervical Ca. patient #15, 1:100 dilution",136
same,Fluorescence intesity,"serum of Uterine cervical Ca. patient #16, 1:100 dilution",145
same,Fluorescence intesity,"serum of Uterine cervical Ca. patient #17, 1:100 dilution",72
same,Fluorescence intesity,"serum of Uterine cervical Ca. patient #18, 1:100 dilution",71
same,Fluorescence intesity,"serum of Uterine cervical Ca. patient #19, 1:100 dilution",92
same,Fluorescence intesity,"serum of Uterine cervical Ca. patient #20, 1:100 dilution",85
same,Fluorescence intesity,"serum of Uterine cervical Ca. patient #21, 1:100 dilution",28
same,Fluorescence intesity,"serum of Uterine cervical Ca. patient #22, 1:100 dilution",28
same,Fluorescence intesity,"serum of Uterine cervical Ca. patient #23, 1:100 dilution",82
same,Fluorescence intesity,"serum of Uterine cervical Ca. patient #24, 1:100 dilution",2650
same,Fluorescence intesity,"serum of Uterine cervical Ca. patient #25, 1:100 dilution",17
same,Fluorescence intesity,"serum of Uterine cervical Ca. patient #26, 1:100 dilution",166
same,Fluorescence intesity,"serum of Uterine cervical Ca. patient #27, 1:100 dilution",33
same,Fluorescence intesity,"serum of Uterine cervical Ca. patient #28, 1:100 dilution",139
same,Fluorescence intesity,"serum of Uterine cervical Ca. patient #29, 1:100 dilution",21
same,Fluorescence intesity,"serum of Uterine cervical Ca. patient #30, 1:100 dilution",50
same,Fluorescence intesity,"serum of Uterine cervical Ca. patient #31, 1:100 dilution",107
same,Fluorescence intesity,"serum of Uterine cervical Ca. patient #32, 1:100 dilution",18
same,Fluorescence intesity,"serum of Uterine cervical Ca. patient #33, 1:100 dilution",191
same,Fluorescence intesity,"serum of Uterine cervical Ca. patient #34, 1:100 dilution",17
same,Fluorescence intesity,"serum of Uterine cervical Ca. patient #35, 1:100 dilution",21
